Experimental data from patent US12358970B2, “Methods of exogenous drug activation of chemical-induced signaling complexes expressed in engineered cells in vitro and in vivo” (Seattle Children's Hospital, priority 2016, dated 2025).
Entries after “also recorded” stand apart in the source; their conditions may differ.

Tests used:
[1] = tested on: gene targeted CD4+ T cells expressing GFP-FOXP3 and IL2R-CISC V3; experiment: Targeted knock-in of MND promoter and CISC into FOXP3 locus, enrichment of gene targeted cells (GFP-FOXP3 flow cytometry); type: cell-based; conditions: 15 days culture; 10 nM ligand
Excerpt: The described targeting approach integrates a promoter and both components of an IL2R-CISC V3 into the FOXP3 locus in line with a GFP fusion to the native FOXP3 gene. This architecture is intended to allow for ligand-induced selection of cells which have undergone an accurate gene targeting event.
FIG. 26 depicts a schematic diagram showing an experimental design of targeted knock-in of MND promoter and CISC. This represents an experimental schematic of how a CRISP/Cas9 nuclease is used to induce targeted integration of the cassettes from FIG. 25 into the FOXP3 locus, followed by expansion of the gene targeted cells in the indicated IL2R-CISC ligand.
Following targeted integration into the FOXP3 locus utilizing the indicated approaches (no targeting, or RNP plus each of the cassettes described in FIG. 25), cells were cultured in the indicated conditions for 15 days, and then analyzed by flow cytometry for GFP-FOXP3 expression. […] Flow panels are representative of IL2R-CISC GFP-FOXP3 expression by cells cultured in rapamycin.
Following targeted integration into the FOXP3 locus utilizing the indicated approaches, cells were cultured in the indicated conditions for 15 days, and then analyzed by flow cytometry for GFP-FOXP3 expression.
In addition, the targeted knock-in of MND promoter and CISC was tested to enrich and/or expand gene targeted T cells. […]

[2] = tested on: IL2R-CISC V3 expressing human CD4+ T cells; experiment: Expansion of IL2R-CISC expressing cells in culture (cell numbers); type: cell-based; conditions: for Dose inducing the most robust cell expansion / Cell expansion: 30 days
[3] = tested on: IL2R-CISC expressing primary human T-cells; experiment: Selective enrichment of IL2R-CISC expressing T cells, flow cytometry of cis-linked GFP/mCherry marker; type: cell-based; conditions: for mCherry positive cells: IL2R-CISC V3 cells, by 15 days culture in the ligand, starting transduced population 64% mCherry positive
Description: Each architecture of IL2R-CISC (i.e. 1210, 1211, and 1233) was cis-linked together with GFP using 2A sequences, and placed under the control of an MND promoter in a lentiviral expression cassette (as schematized in FIG. 5, bottom). Lentiviral particles from each IL2R-CISC architecture were generated and used to transduce primary human T-cells.
Lentiviral particles from each IL2R-CISC architecture were generated and used to transduce primary human T-cells. CD4+ T cells were activated for 60 hours. […] Lentivirus was transduced with or without beads, using 15 μL of IL2R-CISC and 3 μL of MND-GFP control with protamine sulfate at 4 μg/mL (0.5 mL medium) in a 24-well dish. The cells were then spinoculated at 800 g for 30 minutes at 33° C. followed by the addition of 1.5 mL medium after 4 hours of incubation. […] The GFP signal was determined and the IL2R-CISC level of transduced T cells was determined.
The T cell viability was determined and the expression of GFP+ population and IL2R-CISC expression was determined by using anti-FRB antibody and a secondary APC antibody.

[4] = tested on: Akt activation in IL2R-CISC human CD4+ T cells; experiment: Western blot for Akt activation; type: cell-based; conditions: 15 days rapamycin 1 nM, 48 h cytokine starvation, stimulation with rapamycin 100 nM for 20 minutes
Description: IL2R-CISC human CD4+ T cells were analyzed following 15 days of rapamycin treatment at 1 nM, following by cytokine starvation for 48 hours.

[5] = tested on: STAT5 phosphorylation in IL2R-CISC expressing T cells; experiment: phospho-STAT5 signaling after 20 days of culture; type: cell-based, human; conditions: mock, GFP and IL2R-CISC cell types

CO[C@H]1[C@@H](O)[C@H](C)C[C@H](C)/C=C/C=C/C=C(\C)[C@@H](c2c[nH]c3c(C)cccc23)C[C@@H]2CC[C@@H](C)[C@@](O)(O2)C(=O)C(=O)N2CCCC[C@H]2C(=O)O[C@H]([C@H](C)C[C@@H]2CC[C@@H](O)[C@H](OC)C2)C[C@H](O)[C@H](C)/C=C(\C)[C@H]1O [AP21967, C-16-(S)-7-methylindolerapamycin]
Enrichment of FOXP3 expressing (gene targeted) cells [1]: substantial enrichment of FOXP3 expressing cells | Dose inducing the most robust cell expansion ([2]; 100 nM AP21967 (vs 10 nM)): most robust cell expansion | Cell expansion ([2]; AP21967 10 nM and 100 nM): promotes CD4+ T cell proliferation; also recorded: significant AP21967-induced expansion | mCherry positive cells [3]: > 93% | CD4+ T cell survival ([3]; IL2R-CISC V3 construct, in response to AP21967 (FIG. 15)): promotes human CD4+ T cell survival

CO[C@H]1C[C@@H]2CC[C@@H](C)[C@@](O)(O2)C(=O)C(=O)N2CCCC[C@H]2C(=O)O[C@H]([C@H](C)C[C@@H]2CC[C@@H](O)[C@H](OC)C2)CC(=O)[C@H](C)/C=C(\C)[C@@H](O)[C@@H](OC)C(=O)[C@H](C)C[C@H](C)/C=C/C=C/C=C/1C [rapamycin, (3S,6R,7E,9R,10R,12R,14S,15E,17E,19E,21S,23S,26R,27R,34aS)-9,10,12,13,14,21,22,23,24,25,26,27,32,33,34,34a-hexadecahydro-9,27-dihydroxy-3-[(1R)-2-[(1S,3R,4R)-4-hydroxy-3-methoxycyclohexyl]-1-methylethyl]-10,21-dimethoxy-6,8,12,14,20,26-hexamethyl-23,27-epoxy-3H-pyrido[2,1-c][1,4] oxaazacyclohentriacontine-1,5,11,28,29 (4H,6H,31H)-pentone]
Akt activation [4]: Akt activation | Enrichment of FOXP3 expressing (gene targeted) cells [1]: substantial enrichment of FOXP3 expressing cells | Expansion of mCherry positive cell numbers ([2]; 25 days): significant rapamycin-induced expansion | Dose inducing the most robust cell expansion ([2]; 1 nM rapamycin (vs 10 nM)): most robust cell expansion | Cell expansion ([2]; rapamycin 1 nM and 10 nM): significant rapamycin-induced expansion | Phosphorylation of STAT5 in response to treatment [5]: only IL2R-CISC expressing cells respond to rapamycin with phosphorylation of STAT5 | Enrichment for IL2R-CISC expression read out by cis-linked GFP marker ([3]; 1233 architecture, 4 days post transduction, 2 days in rapamycin alone (1 nM)): enriched for IL2R-CISC expression; also recorded: beginning to enrich for IL2R-CISC expression | Enrichment of the GFP marker ([3]; 1233 architecture, 6 days post transduction, 4 days in rapamycin): further enrichment of the GFP marker for 1233 | Enrichment of GFP+ cells ([3]; 1233 architecture, 9 days post transduction, 7 days in rapamycin): further enrichment of the 1233 GFP+ cells | Cells expressing the 1233 IL2R-CISC enriched to % of the cell population (GFP+) ([3]; 1233 architecture, 17 days post transduction, 15 days culture in rapamycin alone (1 nM)): 97% | mCherry positive cells [3]: > 93%
